# “Also recorded” adds a separate entry of the source. Marks after values point to notes of the source that are not given here.
# Tests used:
# [1] = system: influenza A/WSN/33 (H1N1)-infected mice; experiment: Effect of influenza infection and i.p. liponucleotide treatment on lung function; format: in vivo, mouse; conditions: for HR (bpm) / WET:DRY / SaO2 (%) / CST / RBASAL: day 6
# Description: CDP-choline improved oxygenation. SaO2 increased from approximately 85% to approximately 96%. This is equivalent to an increase in PaO2 from approximately 65 mmHg to approximately 85 mmHg. It is also equivalent to an increase in O2 carrying capacity of blood (CaO2) from approximately 88% to approximately 97% of normal. Patients with an SaO2 of 96% or a […] would not require additional treatment
# influenza-infected mice [2] = experiment: Treatment with CDP-choline precursors (choline, CTP) in influenza-infected mice, arterial oxygenation; format: in vivo; conditions: day 6 post-influenza infection; daily i.p. 100 μg/mouse from 1-5 days post-infection; compared with CDP-choline
# Description: FIG. 16 is a plot showing effect of daily i.p. treatment with choline (100 μg/mouse), cytidine triphosphate (CTP, 100 μg/mouse), and choline+CTP from 1-5 days post-influenza infection on mouse O2 sats (SaO2) at day 6 post-influenza infection.
# [3] = system: mice with ARDS induced by intranasal bleomycin; experiment: Bleomycin-induced ARDS in mice, i.p. liponucleotide treatment; format: in vivo; conditions: day 7 after intranasal bleomycin 0.1 mg/mouse; daily i.p. from days 1-6
# influenza-infected mice [4] = experiment: Effect of influenza infection and CDP-choline treatment on lung inflammation; format: in vivo; conditions: day 6 flu; 100 μg/mouse i.p. daily from 1-5 days post-infection
# [5] = system: alveolar type II (ATII) epithelial cells isolated 6 days post-influenza infection; experiment: Effect of influenza infection and CDP-choline treatment on mitochondrial function (Seahorse MitoStress test on isolated ATII cells); format: in vivo, mouse
# Description: FIG. 17 is a plot showing effect of daily i.p. treatment with CDP-choline (CDP-CHO, 100 μg/mouse) from 1-5 days post-influenza infection on basal O2 consumption rate (OCR) of alveolar type II (ATII) epithelial cells isolated at 6 days post-mock infection or 6 days post-influenza infection and OCR after subsequent treatment of the same ATII cells with oligomycin (1 μM). **=P<0.005, #=P<0.001.
# FIG. 18 is a plot showing effect of daily i.p. treatment with CDP-choline (CDP-CHO, 100 μg/mouse) from 1-5 days post-influenza infection on ATP production, non-mitochondrial (non-mt) respiration, and proton (H^+) leak of alveolar type II (ATII) epithelial cells isolated at 6 days post-mock infection or 6 days post-influenza infection. *=P<0.05, #=P<0.001.
# [6] = system: ATII cells from influenza A/WSN/33 (H1N1)-infected mice; experiment: Effect of influenza infection and CDP-choline treatment on ATII cell ultrastructure (transmission electron micrographs); format: in vivo, mouse
# Description: FIG. 14 is a group of three transmission electron micrographs showing effects of CDP-choline treatment on ultrastructure of ATII cell lamellar bodies (composed of surfactant lipids and proteins). Relative to mock-infected controls, lamellar bodies in ATII cells from influenza A/WSN/33 (H1N1)-infected mice are smaller and have disordered lamellae.
# FIG. 15 is a group of 3 transmission electron micrographs showing effects of influenza infection on ultrastructure of ATII cell mitochondria (Mi). Relative to mock-infected controls (left), Mi in ATII cells from A/WSN/33 (H1N1)-infected mice (center) are fewer in number, less electron dense, and have disordered membranes and cristae.
# [7] = influenza-infected mice, i.p. daily from 1-5 days post-infection
# [8] = influenza-infected mice, i.p. daily from 1-5 days post-infection, CDP-CHO/CDP-ETH 100 μg/mouse, CDP-DAG 10 μg/mouse
# [9] = ATII cells isolated 6 days post-influenza infection, Seahorse MitoStress, effect on influenza-induced impairment
# [10] = day 6 flu, 100 μg/mouse i.p. daily from 1-5 days post-infection
# [11] = influenza-infected mice, 100 μg/mouse i.p. on day 5 only
smiles,measurement,setting,value
"CCCCCCCCCCCCCCCC(=O)OC[C@H](COP(=O)(O)OP(=O)(O)OC[C@H]1O[C@@H](n2ccc(N)nc2=O)[C@H](O)[C@@H]1O)OC(=O)CCCCCCCCCCCCCCC [CDP-DAG, CDP-diacylglycerol]",HR (bpm),[1]; [7],600 ± 10 bpm
same,WET:DRY,[1]; [7],5.8 ± 0.1
same,SaO2 (%),[1]; [8],95.2 ± 1.6 %
"Nc1ccn([C@@H]2O[C@H](COP(=O)(O)OP(=O)(O)OP(=O)(O)O)[C@@H](O)[C@H]2O)c(=O)n1 [CTP, cytidine triphosphate]","beneficial effect on arterial oxygenation, mouse O2 sats (SaO2)",influenza-infected mice [2],cannot be reproduced
"NCCOP(=O)(O)OP(=O)(O)OC[C@H]1O[C@@H](n2ccc(N)nc2=O)[C@H](O)[C@@H]1O [CDP-ETH, CDP-ethanolamine]",HR (bpm),[1]; [7],540 ± 20 bpm
same,WET:DRY,[1]; [7],6.5 ± 0.4
same,SaO2 (%),[1]; [8],91.1 ± 1.5%
"C[N+](C)(C)CCOP(=O)(O)OP(=O)(O)OC[C@H]1O[C@@H](n2ccc(N)nc2=O)C(O)C1O (some centres unmarked) [CDP-CHO, Cytidine diphosphate-choline]","mouse O2 sats (SaO2), hypoxemia",[3],can attenuate hypoxemia
same,"mouse weight loss (% of starting body weight), cachexia",[3],no such beneficial effect
same,BALF ALVEOLAR MACS (×10^6/ml),influenza-infected mice [4],1.08 ± 0.21 ×10^6/ml
same,BALF NEUTROPHILS (×10^6/ml),influenza-infected mice [4],0.45 ± 0.07 ×10^6/ml
same,BALF PC,influenza-infected mice [4],1.61 ± 0.45
same,VIRAL TITER (log PFU/g),influenza-infected mice [4],5.32 ± 0.07 log PFU/g
same,"basal O2 consumption rate (OCR), mitochondrial oxidative phosphorylation","[5]; ATII cells isolated 6 days post-influenza infection, 100 μg/mouse i.p. daily days 1-5, effect on influenza-induced impairment",reversed
same,ATP production,[5]; [9],reversed
same,non-mitochondrial (non-mt) respiration,[5]; [9],reversed
same,proton (H+) leak (coupling efficiency),[5]; [9],reversed
same,OCR after oligomycin (ATP synthase activity),"[5]; ATII cells isolated 6 days post-influenza infection, oligomycin 1 μM, effect on influenza-induced impairment",reversed
same,MITOCHONDRIAL MEMBRANE POTENTIAL (ψm; DilC1(5) MCF),[5]; [10],10.14 ± 2.3*
same,MIT[…] PRODUCTION,[5]; [10],36.91 ± 6.82#
same,PaO2 equivalent after treatment,"[1]; equivalent of SaO2 increase, from approximately 65 mmHg",approximately 85 mmHg
same,O2 carrying capacity of blood (CaO2) after treatment,"[1]; equivalent of SaO2 increase, from approximately 88%",approximately 97 % of normal
same,cardiac function,[1]; influenza-infected mice,improved cardiac function
same,effects of single dose treatment late in infection versus daily treatment,[1]; influenza-infected mice,as good as those of daily treatment
same,lung function,[1]; influenza-infected mice,better lung function
same,pulmonary edema,[1]; influenza-infected mice,reduced pulmonary edema
same,CST,[1]; [11],0.05 ± 0.006
same,HR (bpm),[1]; [11],550 ± 10 bpm
same,RBASAL,[1]; [11],1.63 ± 0.22
same,SaO2 (%),[1]; [11],92.9 ± 1.5 %
same,WET:DRY,[1]; [11],6.2 ± 0.2
same,CST,[1]; [7],0.05 ± 0.002
same,HR (bpm),[1]; [7],570 ± 10 bpm
same,RBASAL,[1]; [7],1.96 ± 0.12
same,WET:DRY,[1]; [7],6.2 ± 0.4
same,SaO2 (%),[1]; [8],93.5 ± 1.0 %
same,SaO2 after treatment,"[1]; influenza-infected mice, increased from approximately 85%",approximately 96%
same,ATII CELL AREA (μm^2),[6]; [10],53.64 ± 5.63* μm^2
same,LAMELLAR BODIES/CELL,[6]; [10],8.1 ± 1.16
same,LAMELLAR BODY AREA (μm^2),[6]; [10],0.41 ± 0.04* μm^2
same,MITOCHONDRIAL/CELL,[6]; [10],14.5 ± 1.78
same,MIT[…] (μm^2),[6]; [10],0.34 ± 0.01* μm^2
same,ATII cell lamellar body morphology,"[6]; transmission electron micrographs, A/WSN/33 (H1N1)-infected mice",improves lamellar body morphology
same,ATII cell mitochondria (Mi) morphology,"[6]; transmission electron micrographs, A/WSN/33 (H1N1)-infected mice, listed as CDP-choline",more electron-dense and have more normal cristae; also recorded: display normal morphology

# Reference: US10874684B2, “Liponucleotide-based therapy for ARDS” (Ohio State Innovation Foundation, priority 2016, dated 2020)
